Patent EP0819136B1, “MDP DERIVATIVES AND CONJUGATES HAVING HAEMATOPOIETIC FUNCTION STIMULATING ACTIVITY, AND COMPOSITIONS CONTAINING SAME” (VACSYN S.A., priority 1995, dated 1996)

Columns and labels:
[1] = test system: globules rouges et les plaquettes; experiment: Red blood cell and platelet counts after 7 days of oral AZT, Muradimétide or both (Example 3, figures 9 and 10); assay type: in vivo, souris femelles BALB/c; conditions: p.o. once daily for 7 days: 100 mg/kg AZT, 50 mg/kg muradimétide, or both simultaneously; counts up to day 10
From the text: La figure 9 représente l'effet du traitement per os de souris BALB/c pendant 7 jours consécutifs avec de l'AZT, du Muradimétide (MDM) ou un mélange de ceux-ci sur la numération plaquettaire.
La figure 10 représente l'effet du traitement per os de souris BALB/c pendant 7 jours consécutifs avec de l'AZT, du Muradimétide (MDM) ou un mélange de ceux-ci sur le nombre des globules rouges.
L'effet d'un traitement de 7 jours sur le nombre de globules rouges et de plaquettes est indiqué dans les figures 9 et 10 respectivement. Les numérations sont représentées en pourcentage de celles obtenues au jour 0. Des souris femelles BALB/c (5 par groupe) sont traitées une fois par jour pendant 7 jours consécutifs par 100 mg/kg d'AZT (Δ), 50 mg/kg de muradimétide (D) ou simultanément par 100 mg/kg d'AZT et 50 mg/kg de muradimétide (O). Les comptages de plaquettes ou de globules rouges ont été réalisés au jour 0 et jusqu'à 10 jours suivant le début du traitement. […] La tendance à l'augmentation de leur nombre apparaît entre les jours 4 et 5. En revanche, l'anémie qui pourrait être observée dans les groupes traités pourrait être due aux saignements répétés; néanmoins la vitesse et l'importance de l'anémie est grandement réduite chez les animaux traités avec le mélange des deux produits en comparaison avec celui observé dans le groupe traité par l'AZT seul. […]

myélocytes circulants = experiment: Circulating myelocytes during two weeks of oral treatment, 4 days per week (Example 4, figure 11); assay type: in vivo, souris; conditions: p.o. days 0, 1, 2, 3 and 7, 8, 9, 10; MDM 25 mg/kg, AZT 50 mg/kg or both
Method: La figure 11 représente l'effet d'un traitement per os de souris pendant deux semaines consécutives (4 jours par semaine) avec l'AZT, le Muradimétide ou le mélange des deux sur le nombre des myélocytes circulants.
La figure 11 montre l'effet d'un traitement par le MDM à 25 mg/kg (X), de l'AZT à 50 mg/kg (O) et du mélange des deux (□) sur le comptage des myélocytes de souris traitées pendant 2 semaines aux jours 0, 1, 2, 3 de la première semaine et 7, 8, 9, 10 de la deuxième semaine. […] Si l'effet est surtout marqué au niveau de la première semaine, cela montre que le traitement nécessite un certain espace de temps entre les différents cycles de traitement et que des traitements répétés pourraient, le cas échéant, être utiles.

myélocytes = experiment: Comparison of oral Muradimétide and MDPA on myelocyte count after i.v. AZT (Example 10, figure 8); assay type: in vivo, souris swiss femelles; conditions: AZT 40 mg/kg i.v. days 0-3; MDPA 25 mg/kg p.o. 4 h before AZT
From the text: La figure 8 représente l'effet d'un traitement per os des souris avec du Muradimétide sur le changement de la numération myélocyte dans le sang circulant induite suite à une administration intra-veineuse d'AZT, deux dérivés de MDP étant comparés : le MDPA (Nac-Mur-L-ALa-D-Glu) et le Muradimétide.
Le dérivé utilisé pour mettre en évidence l'effet particulier du Muradimétide est le MDPA. La figure 8 indique l'effet sur des souris d'un traitement per os sur les changements de la numération de myélocyte induite suite à une administration intraveineuse d'AZT. Dans cette expérience, les souris swiss femelles ont été traitées de façon intraveineuse avec 40 mg par kg d'AZT aux jours 0, 1, 2 et 3. Des groupes de 5 souris ont reçu aux mêmes quatre jours et 4 heures avant l'AZT soit de l'eau physiologique, soit du MDPA à la dose de 25 mg par kg ou du Muradimétide par voie orale à la dose de 25 mg par kg. Les comptages de myélocytes ont été réalisés aux jours 0, 2, 3, 4 et 8. Les étoiles au-dessus des histogrammes ont la même signification que dans les diagrammes précédents.

Row | SMILES | toxicité sur les plaquettes [1] | effet sur la mobilisation des CHS (comptage des myélocytes) (myélocytes circulants) | effet antimyélotoxique et mobilisation des CSH dans la circulation sanguine (myélocytes)
1 | Cc1cn([C@H]2C[C@H](N=[N+]=[N-])[C@@H](CO)O2)c(=O)[nH]c1=O [AZT, 3'-Azido-3'-desoxy-thymidine, reference compound] | Aucune toxicité | strictement aucun effet | 
2 | CC(=O)N[C@H]1C(O)O[C@H](CO)[C@@H](O)[C@@H]1O[C@H](C)C(=O)N[C@@H](C)C(=O)N[C@H](CCC(=O)O)C(=O)O (stereo partly drawn) [MDPA, Nac-Mur-L-ALa-D-Glu] |  |  | n'étant pas retrouvé
